Where two headings read alike, the source gives them in different places.
How the values were obtained:
[1] = system: plasma protein, mainly albumin; conditions: cited from earlier work
[2] = Pharmacokinetic study in Wistar rats, plasma levels by HPLC/MS, non-compartmental analysis; type: in vivo; conditions: for bioavailability: read-out: absolute bioavailability (F); for AUC(0-t): read-out: AUC0–24; for Cpmax: rat plasma
Experimental: The column is ACE C8 (50 ∗ 4.6) mm, particle size 5 μm (Supercell), and AP 13C as the internal standard. […] The chromatographic conditions of Ap and ESO analysis were as follows: The HPLC system: […] Detector: API 4000, Applied Biosystems, MDS SCIEX; computer system: […] Data Management Software: […] Column: ACE C8, (50 ∗ 4.6) mm, particle size 5 μm; Flow Rate: 650 μL/min; Injection Volume: 1 μL; […] Expected retention time: […] The ethical committee approved the study protocol of the High Research Council, Faculty of Pharmacy of the […] University, and the study was carried out in the animal house of the university. […] They were divided into five groups, each of 6 rats. Group 1 ([…].V sterile solution (5 mg/kg) in D.W containing 5% ethanol. Group 2 (G2) was given AP as sterile I.V solution (125 mcg/kg) in D.W containing 10% ethanol. […] All rats fasted overnight with access only to water. […] Blood samples were drawn into an EDTA tube and immediately centrifuged at 14,000 rpm for 7 min. Plasma was obtained and placed into a labeled Eppendorf tube and stored at […] until analysis. After constructing the Cp vs. t profile by plotting the average plasma concentration of each drug in ng/mL vs. time in hours, the pharmacokinetics was performed using Non-Compartmental Analysis (NCA) using WinNonlin® (Version 8.1).

[3] = cited from earlier work
[4] = system: P-gp; design: method as in PMID 11770010; conditions: cited from earlier work
[5] = IV (ESO 5 mg/kg; AP 125 mcg/kg)
[6] = Wistar, rat, plasma, iv, IV (ESO 5 mg/kg; AP 125 mcg/kg)
[7] = Wistar, rat, plasma, iv, IV (ESO 5 mg/kg; AP 125 mcg/kg), NCA, read-out: Kel (app) (converted)
[8] = Wistar, rat, plasma, iv, read-out: Vd
[9] = Wistar, rat, plasma, po, ESO 5 mg/kg + AP 250 mcg/kg in combination
[10] = Wistar, rat, plasma, po, ESO 5 mg/kg + AP 250 mcg/kg in combination, NCA, read-out: Kel (app) (converted)
[11] = Wistar, rat, plasma, po, given alone (ESO 5 mg/kg; AP 250 mcg/kg)
[12] = Wistar, rat, plasma, po, given alone (ESO 5 mg/kg; AP 250 mcg/kg), NCA, read-out: Kel (app) (converted)
[13] = oral, ESO 5 mg/kg + AP 250 mcg/kg in combination
[14] = oral, given alone (ESO 5 mg/kg; AP 250 mcg/kg)

## COc1ccc(-n2nc(C(N)=O)c3c2C(=O)N(c2ccc(N4CCCCC4=O)cc2)CC3)cc1 [AP, 1-(4-methoxyphenyl)-7-oxo-6-[4-(2-oxopiperidin-1-yl)phenyl]-4,5-dihydropyrazolo [3,4-c]pyridine-3-carboxamide]
[1]; mainly albumin ref 14
  bound to plasma protein: 87–90%
[2]; [5]
  AUMC0–24: 8164.8 ± 78.3 ng.h^2/mL
  AUMC0–∞: 28975.07 ± 2364 ng.h^2/mL
[2]; Wistar, rat, plasma, 250 mcg/kg, oral vs IV, drug given alone, F=AUCoral/AUCiv∙Doseiv/Doseoral
  bioavailability: 42 ± 1%
[2]; Wistar, rat, plasma, iv
  clearance: 0.3 ± 0.08 mL/min
[2]; [6]
  AUC(0-inf): 1340 ± 120 ng·h/mL
  MRT inf: 21.5 ± 1.5 h
  half-life: 14.9 ± 1.8 h
  AUC(0-t): 894 ± 80.6 ng·h/mL
[2]; [7]
  k el: 1.29e-05 s⁻¹
[2]; [8]
  Vd: 0.4 ± 0.09 L
[2]; [9]
  AUC(0-inf): 1560 ± 78 ng·h/mL
  MRT inf: 14 ± 0.21 h
  Tmax: 1 ± 0.32 h
  half-life: 9.6 ± 0.144 h
  AUC(0-t): 1270 ± 63.3 ng·h/mL
[2]; [10]
  k el: 1.99e-05 s⁻¹
[2]; [11]
  AUC(0-inf): 1540 ± 54 ng·h/mL
  MRT inf: 24 ± 0.24 h
  Tmax: 6 ± 1.09 h
  half-life: 16.6 ± 0.99 h
  AUC(0-t): 959 ± 38.4 ng·h/mL
[2]; [12]
  k el: 1.17e-05 s⁻¹
[2]; [13]
  AUMC0–24: 10320.5 ± 516 ng.h^2/mL
  AUMC0–∞: 21710.2 ± 215.1 ng.h^2/mL
  Vd: 2.1 ± 0.015 L
  Cpmax: 98.6 ± 12.6 ng/mL
[2]; [14]
  AUMC0–24: 9517 ± 475.8 ng.h^2/mL
  AUMC0–∞: 37101 ± 742.2 ng.h^2/mL
  Cl: 0.54 ± 0.03 mL/min
  Vd: 0.779 ± 0.032 L
  Cpmax: 57.2 ± 5.3 ng/mL
[3]
  excreted in the urine as unchanged drug: 25%
  excreted into the bile as unchanged drug: 56%
  share of total absorption in the distal part and the descending colon: 55%
[3]; mainly extracellular fluids ref 14
  volume of distribution: 21 L
[3]; no noticeable effect of food ref 12
  bioavailability: around 50%

## COc1ccc2[nH]c([S+]([O-])Cc3ncc(C)c(OC)c3C)nc2c1 (stereo not shown) [ESO, 5-methoxy-2-{[(4-methoxy-3,5-dimethylpyridin-2-yl)methyl]sulfinyl}-1H-benzimidazole]
[1]; mainly to albumin ref 6, 7
  plasma protein binding: about 97%
[2]; [5]
  AUMC0–24: 35805 ± 826 ng.h^2/mL
  AUMC0–∞: 40322.6 ± 1256 ng.h^2/mL
[2]; Wistar, rat, in vivo, po
  half-life: 4.7 ± 0.14 h
[2]; Wistar, rat, plasma, iv
  clearance: 3.7 ± 0.7 mL/min
[2]; [6]
  AUC(0-inf): 5450 ± 118 ng·h/mL
  MRT inf: 7.4 ± 0.95 h
  half-life: 4.8 ± 0.8 h
  AUC(0-t): 5120 ± 120 ng·h/mL
[2]; [7]
  k el: 3.94e-05 s⁻¹
[2]; [8]
  Vd: 1.5 ± 0.15 L
[2]; Wistar, rat, plasma, oral
  bioavailability: 62 ± 1.5%
[2]; Wistar, rat, plasma, po, 5 mg/kg, oral ESO 5 mg/kg alone, read-out: elimination rate constant calculated from late concentrations of the plasma level time profile (linear model) (converted)
  k el: 4.53e-05 s⁻¹
[2]; [9]
  AUC(0-inf): 3410 ± 45.9 ng·h/mL
  MRT inf: 8.6 ± 0.13 h
  Tmax: 4 ± 0.55 h
  half-life: 5.9 ± 0.236 h
  AUC(0-t): 3250 ± 160 ng·h/mL
[2]; [10]
  k el: 3.22e-05 s⁻¹
[2]; [11]
  AUC(0-inf): 4510 ± 226 ng·h/mL
  MRT inf: 6.4 ± 0.128 h
  Tmax: 2 ± 0.156 h
  AUC(0-t): 4380 ± 218 ng·h/mL
[2]; [12]
  k el: 4.08e-05 s⁻¹
[2]; oral ESO 5 mg/kg with AP 250 mcg/kg vs alone
  decrease of AUC when given with AP: 25%
[2]; oral ESO alone
  extrapolated area to infinity as share of the total area: about 13%
[2]; oral ESO in combination with AP
  extrapolated area to infinity as share of the total area: 20%
[2]; [13]
  AUMC0–24: 23544.9 ± 309 ng.h^2/mL
  AUMC0–∞: 29430.9 ± 1473 ng.h^2/mL
  Cl: 4.8 ± 0.14 mL/min
  Vd: 2.4 ± 0.09 L
  Cpmax: 387.9 ± 23.5 ng/mL
[2]; [14]
  AUMC0–24: 24658.6 ± 206.5 ng.h^2/mL
  AUMC0–∞: 29094.1 ± 1454.7 ng.h^2/mL
  Vd: 1.41 ± 0.07 L
  Cpmax: 695.9 ± 25.8 ng/mL
[4]
  P-gp inhibitor strength: moderate to potent P-gp inhibitor
[3]; adults ref 6, 7
  volume of distribution: 16 to 18 L
[3]; after 20 or 40 mg delayed-release tablets ref 6, 7
  bioavailability: about 90%

— paper PMC9586895, “Esomeprazole and apixaban pharmacokinetic interactions in healthy rats” (Heliyon, 2022)
